IC50 data for four molecules are collected here from US8822485B2, “Amino heteroaryl compounds as beta-secretase modulators and methods of use” (Amgen Inc., priority 2010, dated 2014).

Test [1] deals with Aβ40 in conditioned medium of cells stably expressing Amyloid Precursor Protein (APP) (HEK cell). Kind of test: In vitro BACE cell-based assay (HEK cell assay, Aβ40 sandwich ELISA). To be noted: Homo sapiens, HEK293; IC50 range class; inhibition of Aβ40 after 24 h incubation. The procedure: In Vitro BACE Cell-Based Assay:
The cell-based assay measures inhibition or reduction of Aβ40 □ in conditioned medium of test compound treated cells expressing amyloid precursor protein.
Cells stably expressing Amyloid Precursor Protein (APP) were plated at a density of 40K cells/well in 96 well plates (Costar). The cells were cultivated for 24 hours at 37° C. and 5% CO2 in DMEM supplemented with 10% FBS. The test compounds were then added to cells in 10-point dose response concentrations with the starting concentration being either 100 μM or 10 μM. The compounds were diluted from stock solutions in DMSO and the final DMSO concentration of the test compounds on cells was 0.1%. After 24 h of incubation with the test compounds the supernatant conditioned media was collected and the Aβ 40 levels were determined using a sandwich ELISA. The IC50 of the compound was calculated from the percent of control or percent inhibition of Aβ40 as a function of the concentration of the test compound.
The sandwich ELISA to detect Aβ 40 was performed in 96 well microtiter plates, which were pre-treated with goat anti-rabbit IgG (Pierce). The capture and detecting antibody pair that were used to detect Aβ 40 from cell supernatants were affinity purified pAb40 (Biosource) and biotinylated 6E10 (Signet Labs Inc.), respectively. The optimal concentration for the pAb40 antibody was 3 μg/ml in Superblock/TBS (Pierce) that was supplemented with 0.05% Tween 20 (Sigma). Optimal concentration for the detection antibody 6E10-biotinylated was 0.5 μg/ml in Superblock/TBS (Pierce) that had been supplemented with 2% normal goat serum and 2% normal mouse serum.
Cellular supernatants were incubated with the capture antibody for 3 h at 4° C., followed by 3 wash steps in TBS-tween (0.05%). The detecting antibody incubation was for 2 h at 4° C., again followed by the wash steps as described previously. The final readout of the ELISA is Time-Resolved Fluorescence (counts per minute) using Delfia reagents Streptavidin-Europium and Enhancement solutions (Perkin Elmer) and the Victor 2 multilabel counter (Perkin Elmer).
Of the compounds tested, the cell based assay data for each of Examples 1-33, where available at the time of filing this application, is provided in Table 1.

For another test, the target named is BACE1 (Homo sapiens, UniProt P56817). Kind of test: In vitro enzymatic BACE FRET assay. The test is classed as biochemical. Conditions: IC50 range class; 0.2 nM enzyme, 50 nM FRET substrate, pH 4.2. The protocol: In Vitro Enzymatic BACE FRET (Fluorescence Resonance Energy Transfer) Assay (Enzyme Assay Data in Table 1)
BACE1, sequence (P56817 46-501, species assumed): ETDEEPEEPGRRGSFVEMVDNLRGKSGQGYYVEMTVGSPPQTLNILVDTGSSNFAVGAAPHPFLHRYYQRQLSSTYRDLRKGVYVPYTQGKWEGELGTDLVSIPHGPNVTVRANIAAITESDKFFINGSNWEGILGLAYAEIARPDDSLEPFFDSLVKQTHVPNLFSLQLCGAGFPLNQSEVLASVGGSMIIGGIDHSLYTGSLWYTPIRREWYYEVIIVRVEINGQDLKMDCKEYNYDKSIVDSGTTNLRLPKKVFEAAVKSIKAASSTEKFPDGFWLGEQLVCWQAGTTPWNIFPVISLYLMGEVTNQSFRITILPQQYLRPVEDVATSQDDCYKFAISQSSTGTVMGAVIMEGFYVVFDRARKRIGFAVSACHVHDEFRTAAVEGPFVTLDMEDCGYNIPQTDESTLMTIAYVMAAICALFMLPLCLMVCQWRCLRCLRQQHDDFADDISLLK
The assay buffer used in this screen is 0.05 M acetate, pH 4.2, 10% DMSO final, 100 uM genapol (which is a nonionic detergent, below its Critical Micelle Concentration). The Beta Secretase enzyme (0.2 nM) is pre-incubated for one hour with inhibitors, typically in about 1 uL of DMSO according to a serial dilution, are added thereto. The assay is effectively started by the addition of FRET substrate (50 nM) and the combination is incubated for one hour. The FRET assay is terminated with by addition of Tris buffer, which raises the pH to neutrality, and the fluorescence is determined. The FRET substrate is a peptide with commercially available fluorophore and quencher, on opposite sides of the BACE cleavage site. Proteolytic cleavage of the FRET substrate releases quenching of fluorescence (excitation […] and […]).
Of the compounds tested, the in-vitro BACE FRET enzyme data for each of Examples 1-33, where available at the time of filing this application, is provided in Table 1.

In general, IC50 refers to the concentration that inhibits the measured activity by half. For the molecule `Cc1ccccc1-c1ccc2nc(N)c(CCc3cccc(C(F)(F)F)c3)cc2c1` [Example 23, 6-o-tolyl-3-(3-(trifluoromethyl)phenethyl)quinolin-2-amine], the IC50 in test [1] is > 5000 nM; at BACE1 it was 1000 to 5000 nM.

Regarding `Cc1ccccc1-c1ccc2nc(N)c(CCc3cnco3)cc2c1` [Example 28, 3-(2-(oxazol-5-yl)ethyl)-6-o-tolylquinolin-2-amine], the half-inhibitory concentration (IC50) is > 5000 nM in test [1] and 1000 to 5000 nM at BACE1.

For `Cc1ccccc1-c1ccc2nc(N)c(CCc3cncc(CCC(C)(C)C)c3)cc2c1` [Example 22, 3-(2-(5-(3,3-dimethylbutyl)pyridin-3-yl)ethyl)-6-o-tolylquinolin-2-amine], the IC50 in test [1] was > 5000 nM; at BACE1, 100 to 1000 nM.

In the case of `Cc1ccccc1-c1ccc2nc(N)c(C=Cc3cncc(C4=CCCCC4)c3)cc2c1` [Example 2, 3-(2-(5-cyclohexenylpyridin-3-yl)vinyl)-6-o-tolylquinolin-2-amine], the 50% inhibitory concentration (IC50) in test [1] is > 5000 nM; on BACE1 it was 100 to 1000 nM.
